1 substance from patent US20160031937A1, “NEURAL REGENERATION PEPTIDES AND USES THEREFOR” (CURONZ HOLDINGS COMPANY LIMITED, priority 2013, published 2016) can be followed below.

Square brackets hold non-standard residues; d marks the D form. Ends that are not written are not given here. Aib = CC(C)(N)C(=O)O

The test system of one assay is W9-hESCs. In words: TUNEL staining for apoptotic cell death after OGD injury. It is filed as cell-based, human. As to conditions: 24 hours, 100 pM NRP2945. As to the method:
Neuronal differentiation was achieved using the noggin induction method described for mouse neurospheres as adapted by Dottori for human neurospheres (Dottori & Pera, 2007). The colonies were maintained at 37° C., with 5% CO2 in hESC medium supplemented with 500 ng/ml of Noggin for 14 days while replacing Noggin every other day.
At this point, the cells were washed with PBS and the colonies were again mechanically dissociated, but this time the central (differentiated) part of the colony was also cut into smaller pieces using a 26-gauge needle. The pieces were transferred to individual wells in a low adherent 96-well plate containing Neurobasal®A (NBM) (Invitrogen) supplemented with 1× X B-27® (Invitrogen) and 1× N-2 (Invitrogen) 20 ng/ml human recombinant EGF and 20 ng/ml human recombinant bFGF (Pharmacia). […]
To maintain isoosmotic pressure conditions, 25 mM 2-deoxy-D-glucose was added to NBM-AO medium and equilibrated for 30 minutes at room temperature before the initial media change as described above. […] Culture supernatant was removed after this 4 hour period and stored at 4° C. until analysed for lactate dehydrogenase (LDH) activity. […]
Tunnel positive cells, wells were imaged and the images re-coded independently before quantitation. No additional blinding was performed for the machine read LDH assay process.

The next assay deals with CXCR4 gene expression. As to the kind of experiment: CXCR4 gene expression by real time PCR. It is filed as cell-based, human. The conditions noted are these: W9-hESCs. As for the experimental part: The second experiment was done to assess the capability of NRP2945 for regulating the gene expression of its target receptor subunit CXCR4. For this purpose, W9-hESCs were either exposed to 10 minute, 30 minute or 60 minute of either 10 pM or 100 pM of NRP2945 under normoxic conditions; or in combination with 4 hours of OGD injury at concentrations of either 10 pM or 100 pM of NRP2945. At the end of the 4 hours, mRNA was extracted from all the cell samples, cDNA synthesis was performed using the SuperSript® cDNA kit (Invitrogen) followed by real time PCR. The efficacy of the real time PCR was 99% when using the following primers for the CXCR4 product propagation: […]
according to the publication: Nagase, Miyamasu et al. (2000) - J Immunol 164: 5935-5943

The subject of assay [1] is human DU-145 prostate cancer cells. In words: DU-145 Boyden chamber motility bioassay. It is filed as cell-based. As to conditions: 0.1 ng/ml NRP2945 adhered to Boyden chamber bottom plate, 24 hours of incubation. From the text: Human epithelial DU-145 cells were obtained from ATCC (HTB-81). The DU-145 cell line was originally isolated from a metastatic prostate-derived cancer formed in the brain. The cells are adherent, and co-express CXCR4 and CCR3 receptors similar to neuroblasts and neurons. For this experiment, DU-145 cells were cultivated in ATCC-formulated Eagle's Minimum Essential Medium with 10% FBS in 5% CO2 at 37′C. The cells were then subcultivated as follows.
The media was removed and discarded. The cell layer was briefly rinsed with 0.25% (w/v) trypsin and 0.5 mM EDTA to remove all remaining trypsin inhibitors from the serum. To each flask, 2-3 ml of trypsin-EDTA solution was added. This was incubated at room temperature.
The cells were observed under an inverted microscope until dislodgement (between 10-15 minutes). Shaking was avoided to prevent the cells from clumping. […]
The Boyden chamber inserts (Corning) were coated for 2 hours at 37° C. with […] poly-D-lysine (PDL; culture grade from Invitrogen). […] The coated Boyden chamber could then be refrigerated, stored, and ready for cell seeding. […]
Cells were counted and 50,000 cells were seeded into one insert of a 12-well Boyden chamber. […]
DU-145 cells attached to the lower insert membrane were visualized and counted with standard cell visualization methods using hematoxyclin staining. […]

On to “Gly Arg Arg Ala Ala Pro Gly Arg Aib Gly Gly (GRRAAPGR[Aib]GG) [NRP2945, synthetic 11-mer peptidomimetic optimized for stability and pharmacokinetics]”, for which the “W9-hESCs protected from apoptotic cell death (TUNEL)” value in the assay with W9-hESCs came out at 23%. Besides, the “CXCR4 gene expression in the presence of OGD” value with CXCR4 gene expression (4 hours of OGD, 10 pM or 100 pM NRP2945) was “unchanged”. Moreover, in the assay on CXCR4 gene expression (normoxic conditions, 10 pM or 100 pM NRP2945, relative to normoxic control, normalised to β actin), the “expression of CXCR4 gene” value is given as “decreased significantly after only 10 minutes”. Also, the “time of peak in CXCR4 gene down-regulation” value with CXCR4 gene expression (normoxic, maintained for at least 1 hour) was found to be 30 min. Further, the “extent of CXCR4 down-regulation” value with CXCR4 gene expression (within 30 minutes) was “constitutively expressed levels seen in a human tissue cDNA library”. Further, the “decrease of migrating cells” value in assay [1] is given as 36%.
